In ChEMBL document CHEMBL1201862, “PubChem BioAssay data set” (2004):
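All cell lines were grown in 96-well plates and treated with compound for 48 hours. Abbreviation: GI50, concentration required for 50% inhibition of growth.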 Activity calls are given as the source filed them. No stated cut-off is given here; in the data, active = GI50 up to about 1.1 µM and inactive = higher.

Columns and labels:
Experiment in all cases: inhibition of tumour cell growth, NCI panel, 48 h
[1] = tested on: ACHN
[2] = tested on: COLO 205
[3] = tested on: DU-145
[4] = tested on: EKVX
[5] = tested on: HCT-15
[6] = tested on: HOP-62
[7] = tested on: MCF7
[8] = tested on: MDA-N
[9] = tested on: MOLT-4
[10] = tested on: Malme-3M
[11] = tested on: NCI-H460
[12] = tested on: NCI-H522
[13] = tested on: NCI/ADR-RES
[14] = tested on: SF-295
[15] = tested on: SK-MEL-5
[16] = tested on: SN12C
[17] = tested on: U-251
[18] = tested on: UACC-62
[19] = tested on: K562

| SMILES | GI50 [1] | GI50 [2] | GI50 [3] | GI50 [4] | GI50 [5] [µM] | GI50 [6] | GI50 [7] | GI50 [8] | GI50 [9] | GI50 [10] | GI50 [11] | GI50 [12] | GI50 [13] | GI50 [14] | GI50 [15] | GI50 [16] | GI50 [17] | GI50 [18] | GI50 [19] |
| --- | --- | --- | --- | --- | --- | --- | --- | --- | --- | --- | --- | --- | --- | --- | --- | --- | --- | --- | --- |
| CC1NC(C(=O)O)Cc2cc(O)c(O)cc21 (configuration not stated) | > 100 µM (inactive) | > 100 µM (inactive) | > 100 µM (inactive) | > 100 µM (inactive) | > 100 | > 100 µM (inactive) | > 100 µM (inactive) | > 100 µM (inactive) | > 100 µM (inactive) | > 100 µM (inactive) | > 100 µM (inactive) | > 100 µM (inactive) | > 100 µM (inactive) | > 100 µM (inactive) | > 100 µM (inactive) | > 100 µM (inactive) | > 100 µM (inactive) | > 100 µM (inactive) | – |
| Cc1ccc(S(=O)(=O)Nc2ccccc2C(=O)c2ccc(C)c(C)c2)cc1 | 55.2 µM (inactive) | > 100 µM (inactive) | > 100 µM (inactive) | > 100 µM (inactive) | > 100 | > 100 µM (inactive) | 52.7 µM (inactive) | 74.3 µM (inactive) | – | 59 µM (inactive) | 80.2 µM (inactive) | 39.9 µM (inactive) | > 100 µM (inactive) | 75 µM (inactive) | 35 µM (inactive) | > 100 µM (inactive) | 85.1 µM (inactive) | 88.5 µM (inactive) | – |
| Cc1ccc(OC2CC(n3cnc4ncnc(Cl)c43)OC2Oc2ccc(C)cc2)cc1 (configuration not stated) | 2.59 µM (inactive) | 14.8 µM (inactive) | 15.7 µM (inactive) | 33.3 µM (inactive) | 13.8 | 27.3 µM (inactive) | 5.96 µM (inactive) | 22.4 µM (inactive) | 4.49 µM (inactive) | 40.5 µM (inactive) | 12.7 µM (inactive) | 5.36 µM (inactive) | 18.8 µM (inactive) | 21.1 µM (inactive) | 18.5 µM (inactive) | 29.6 µM (inactive) | 36.1 µM (inactive) | 14.1 µM (inactive) | – |
| CC1(C)CCOC(=O)C(Cl)CC1Cl (configuration not stated) | > 100 µM (inactive) | > 100 µM (inactive) | > 100 µM (inactive) | > 100 µM (inactive) | > 100 | > 100 µM (inactive) | > 100 µM (inactive) | > 100 µM (inactive) | > 100 µM (inactive) | > 100 µM (inactive) | > 100 µM (inactive) | > 100 µM (inactive) | > 100 µM (inactive) | > 100 µM (inactive) | > 100 µM (inactive) | > 100 µM (inactive) | > 100 µM (inactive) | > 100 µM (inactive) | > 100 µM (inactive) |
| COc1ccc(C=O)cc1Oc1ccc(C[C@H]2c3c(cc(OC)c4c3Oc3cc5c(cc3O4)CCN(C)C5=O)CCN2C)cc1 | 8.43 µM (inactive) | 20.8 µM (inactive) | 12.1 µM (inactive) | 9.4 µM (inactive) | 10.1 | 8.32 µM (inactive) | 7.66 µM (inactive) | 8.67 µM (inactive) | 9.95 µM (inactive) | 10.4 µM (inactive) | 9.04 µM (inactive) | 9.44 µM (inactive) | 8.07 µM (inactive) | 7.41 µM (inactive) | 7.33 µM (inactive) | 12.9 µM (inactive) | 9.51 µM (inactive) | – | 6.05 µM (inactive) |
| CSc1nc2c(c(=O)[nH]1)N=C(c1ccc([N+](=O)[O-])cc1)CC(c1ccccc1)N2 (configuration not stated) | 31.9 µM (inactive) | 55.1 µM (inactive) | 86.1 µM (inactive) | 36.4 µM (inactive) | – | > 100 µM (inactive) | 23.7 µM (inactive) | 38.2 µM (inactive) | 31.3 µM (inactive) | 55.5 µM (inactive) | – | 23.9 µM (inactive) | 30 µM (inactive) | 51.1 µM (inactive) | 20.9 µM (inactive) | 54.8 µM (inactive) | 33.6 µM (inactive) | 27.4 µM (inactive) | 34.4 µM (inactive) |
| CC(=O)O/C(=C(/C#N)C(=O)O)C1C(C(=O)O)C(c2ccccc2[N+](=O)[O-])C=C(c2ccco2)N1c1ccncc1 (configuration not stated) | 2.17 µM (inactive) | 3.41 µM (inactive) | 8.49 µM (inactive) | 9.25 µM (inactive) | 1.71 | 7.82 µM (inactive) | 1.03 µM (active) | 2.81 µM (inactive) | 2.54 µM (inactive) | 8.43 µM (inactive) | 6.35 µM (inactive) | 2.09 µM (inactive) | 8.57 µM (inactive) | 7.67 µM (inactive) | 2.94 µM (inactive) | 4.86 µM (inactive) | 2.11 µM (inactive) | 7.52 µM (inactive) | 2.31 µM (inactive) |
| O=C(COc1ccc(OCC(=O)N2C(=O)CC(=O)N(c3ccc(Cl)cc3)C2=S)cc1)N1C(=O)CC(=O)N(c2ccc(Cl)cc2)C1=S | 27.4 µM (inactive) | 18.2 µM (inactive) | 31.6 µM (inactive) | 42.2 µM (inactive) | 24.3 | – | 35.1 µM (inactive) | 28.1 µM (inactive) | 17.9 µM (inactive) | 3.26 µM (inactive) | 29.2 µM (inactive) | 17 µM (inactive) | 22.9 µM (inactive) | 34 µM (inactive) | 29.7 µM (inactive) | 42 µM (inactive) | 33.3 µM (inactive) | 16.8 µM (inactive) | 19.4 µM (inactive) |
| C/C=C\C(CC(=O)NCCC1CN(C(=O)c2ccccc2)c2ccccc21)CC(=O)OC (configuration not stated) | > 100 µM (inactive) | > 100 µM (inactive) | > 100 µM (inactive) | > 100 µM (inactive) | > 100 | > 100 µM (inactive) | > 100 µM (inactive) | > 100 µM (inactive) | > 100 µM (inactive) | > 100 µM (inactive) | > 100 µM (inactive) | > 100 µM (inactive) | > 100 µM (inactive) | > 100 µM (inactive) | 97.3 µM (inactive) | – | > 100 µM (inactive) | > 100 µM (inactive) | > 100 µM (inactive) |
| O=C(Nc1ccccc1)OCCN=C1c2ccccc2CCc2ccccc21 | 15.4 µM (inactive) | 17.6 µM (inactive) | 24.5 µM (inactive) | 33.2 µM (inactive) | 15.7 | 19.7 µM (inactive) | 24 µM (inactive) | 19.6 µM (inactive) | 9.73 µM (inactive) | 22.5 µM (inactive) | 21.4 µM (inactive) | – | 19.7 µM (inactive) | 15.5 µM (inactive) | 13.4 µM (inactive) | 17.3 µM (inactive) | 17.3 µM (inactive) | 13.1 µM (inactive) | 15.1 µM (inactive) |
| O=c1c2cc(-c3ccccc3)cnc2sn1-c1ccc([N+](=O)[O-])cc1 | 24.9 µM (inactive) | > 100 µM (inactive) | 61.4 µM (inactive) | 53 µM (inactive) | 55.2 | 26.5 µM (inactive) | 49 µM (inactive) | 60.4 µM (inactive) | 71.3 µM (inactive) | 40.6 µM (inactive) | 37.3 µM (inactive) | 22.1 µM (inactive) | 32.7 µM (inactive) | 27 µM (inactive) | – | 60 µM (inactive) | 21.6 µM (inactive) | 17.7 µM (inactive) | 35.8 µM (inactive) |
| CC(C)(C)C1=CC(O)(c2c3ccccc3c(C3(O)C=C(C(C)(C)C)C(=O)C(C(C)(C)C)=C3)c3ccccc23)C=C(C(C)(C)C)C1=O | > 100 µM (inactive) | > 100 µM (inactive) | > 100 µM (inactive) | > 100 µM (inactive) | > 100 | > 100 µM (inactive) | > 100 µM (inactive) | > 100 µM (inactive) | 48.2 µM (inactive) | > 100 µM (inactive) | – | > 100 µM (inactive) | > 100 µM (inactive) | > 100 µM (inactive) | > 100 µM (inactive) | > 100 µM (inactive) | > 100 µM (inactive) | > 100 µM (inactive) | 81.8 µM (inactive) |
| COc1ccc(CCN2CCc3c(C)c(C#N)c4nc5ccccc5n4c32)cc1OC | 64.6 µM (inactive) | 30.3 µM (inactive) | 81.7 µM (inactive) | – | 29 | 33.7 µM (inactive) | 18 µM (inactive) | 19.1 µM (inactive) | – | 28.7 µM (inactive) | 20.2 µM (inactive) | 21.4 µM (inactive) | 27.4 µM (inactive) | 42.4 µM (inactive) | 19.6 µM (inactive) | 34.2 µM (inactive) | 15.6 µM (inactive) | 24.2 µM (inactive) | 15.6 µM (inactive) |
| c1ccc(/N=C(\N2CCOCC2)N(CCN2CCOCC2)c2ccccc2)cc1 | – | > 100 µM (inactive) | > 100 µM (inactive) | > 100 µM (inactive) | > 100 | > 100 µM (inactive) | > 100 µM (inactive) | > 100 µM (inactive) | > 100 µM (inactive) | > 100 µM (inactive) | > 100 µM (inactive) | > 100 µM (inactive) | > 10 µM (inactive) | > 100 µM (inactive) | > 100 µM (inactive) | > 100 µM (inactive) | > 100 µM (inactive) | > 100 µM (inactive) | > 100 µM (inactive) |
| CC(=O)Oc1ccc2c3c1[C@@H]1O[C@@H]1c1cccc(c1-3)[C@@H]1O[C@H]21 | 1.84 µM (inactive) | 1.99 µM (inactive) | 1.91 µM (inactive) | 2.02 µM (inactive) | 1.66 | 2.01 µM (inactive) | 2.55 µM (inactive) | 1.84 µM (inactive) | – | 1.86 µM (inactive) | – | 1.47 µM (inactive) | 1.82 µM (inactive) | 1.94 µM (inactive) | 1.61 µM (inactive) | 1.6 µM (inactive) | 2.12 µM (inactive) | 1.87 µM (inactive) | – |
